{
  "source": "patent US20260108588A1",
  "about": "“A COMPLEX COMPRISING A ALPHA-LACTALBUMIN AND A FATTY ACID OR LIPID FOR USE IN THE TREATMENT OR PREVENTION OF CANCER” (LINNANE PHARMA AB, priority 2022, published 2026)",
  "key": {"[1]": {"test_system": "intestinal tumors of Apc^Min/+ mice", "test": "Intestinal cancer model in Apc^Min/+ mice, BAMLET in the drinking water (eight weeks and long term)", "format": "in vivo", "conditions": "vs sham", "method": "Apc^Min/+ mice were obtained from Jackson Laboratories at about eight weeks of age. Genotyping was performed by PCR analysis of genomic DNA obtained from blood collected from the retro-orbital sinus. Multiple tumors were developed in the small intestine at eight to ten weeks. Mice were acclimated for about two weeks at the local animal facility at BMC, Lund University in order to reduce stress from transportation.\n(§1) For BAMLET prophylaxis protocol, ten-week-old female Apc^Min/+ mice (n=10 mice per group) were provided daily with BAMLET (20 mg/day in 5 ml PBS) in the drinking water for eight weeks and sacrificed at 18 weeks of age. A similar treatment was used in the survival study groups where mice were observed until 37 weeks of age.\nMice were sacrificed by isoflurane inhalation. Tumor enumeration and sample collection was presented as previously described^28. Tumor numbers and size were determined using a dissecting microscope (Olympus) and evaluated by three blinded investigators.\nThe opened intestinal segments were spread flat between sheets of filter paper and fixed overnight in 10% neutral buffered formalin. Formalin-fixed sections were transferred to 70% ethanol and stained with 0.2% methylene blue (Sigma, #M9140). Stained sections were rinsed in deionized water and imaged by a dissecting microscope.\n(§2) Swiss rolls of longitudinally opened intestinal segments were fixed overnight in 10% neutral buffered formalin. Samples were embedded in paraffin and 5 μm thick sections were further processed for histology and immunohistochemistry using antibodies for bovine alpha-Lactalbumin (ThermoFisher Scientific, Cat #A10-128A), β-catenin (CellSignaling, Cat #9562), Cyclin D1 (ThermoFisher Scientific, Cat #SC8396), Ki-67 (BD Biosciences, Cat #556003), VEGF (Abcam, Cat #ab46154), PD-1 (Abcam, Cat #ab214421) and TTF-1 (Abcam, Cat #ab227652) as previously described^28 with slight modifications. Citrate buffer (Dako Target Retrieval Solution, Agilent, Cat #S1699) was used for antigen retrieval for Cyclin D1, Ki-67, VEGF, bovine alpha-Lactalbumin and β-catenin staining. EDTA buffer (Abcam, Cat #ab64216) was used for antigen retrieval for TTF-1 staining. Immunohistochemistry was quantified by ImageJ. For Hematoxylin-Eosin (H&E) staining, Hematoxylin (ThermoFisher Scientific, Cat #7211) was used followed by Eosin-Y (ThermoFisher Scientific, Cat #7111) for counterstaining. Images were captured using the AX10 microscope or the Hamamatzu Nanozoomer scanner (Carl Zeiss) and the DAB-positive beta-catenin antibody fields (4-10) for each organ cross-sections were quantified by ImageJ."}, "[2]": {"test_system": "intestinal gene expression", "test": "Transcriptomic analysis of intestinal tissue of Apc^Min/+ mice", "format": "in vivo", "procedure": "Approximately 5 mg of tissue was homogenized using a Tissuelyser (Qiagen) and total RNA was extracted using the RNeasy kit (Qiagen), amplified using a GeneChip 3'IVT Express Kit, hybridized onto Mouse Genome 430 PM array strips, and scanned using the GeneAtlas system (Affymetrix). Data was normalized using Robust Multi Average implemented in the Transcriptome Analysis Console software (v.4.0.1.36, Applied Biosystems, ThermoFisher Scientific). Relative expression was analyzed by ANOVA using the empirical Bayes method, and genes with an absolute fold change >1.5 or 2.0 were considered differentially expressed. Heat maps were constructed using Graphpad Prism 9 and differentially expressed genes were analyzed using Ingenuity Pathway Analysis software (IPA, Qiagen)."}, "PD-1": {"test_system": "PD-1", "test": "PD-1 staining of intestinal sections", "format": "in vivo, mice", "conditions": "tumor and healthy tissue areas, long-term drinking water, vs sham", "method": "For PD-1 immunofluorescence staining, paraffin sections were deparaffinized in xylene, rehydrated with reduced ethanol concentrations and then washed with deionized water. The slides were then immerged in target retrieval solution (Dako, S1699) and boiled for 20 minutes, followed by 30 minutes permeabilization with 0.25% Triton in PBS at room temperature. A blocking solution consisting in 5% goat serum in PBS was added on the sections for 1 h at room temperature, before adding the rabbit monoclonal anti-mouse PD-1 antibody (Abcam-ab214421, 1:150) in 1% goat serum and incubated overnight at 4° C. The slides were then washed with 0.025% PBS-T and stained with goat anti-rabbit […] secondary antibody (1:200 for 1 h at room temperature, Invitrogen cat. n. A11034). The nuclei were counterstained with DAPI for 15 minutes, washed in PBS, and then mounted with Fluoromount aqueous mounting media (Sigma, F4680). Images were captured with the Hamamatzu Nanozoomer scanner and the fluorescence intensity was quantified by ImageJ."}, "[3]": {"test_system": "lungs, livers, kidneys and spleens of Apc^Min/+ mice", "test": "Macroscopy, histology and immunohistochemistry of organs outside the intestine of Apc^Min/+ mice, long-term drinking water", "format": "in vivo", "method": "as §1, §2"}, "[4]": {"test": "Giant unilamellar vesicle experiments, membrane response", "conditions": "21 μM BAMLET, one hour", "method": "Giant unilamellar vesicles (GUVs) were formed by hydrogel-assisted swelling according to established protocols^29,30, with modifications previously described^31. Briefly, glass cover slips were sonicated in 1 M NaOH solution (30 minutes), rinsed in Milli-Q water (three times) and further sonicated (30 minutes). Coverslips were plasma etched (1 min) using a BD-20 laboratory corona treater (Electro Technic Products Inc.) to render the surface clean and hydrophilic. A thin film of 1% (w/v) solution of molten ultra-low gelling temperature type IX-A agarose (Sigma) was deposited on the coverslip to provide a reaction bed for GUV formation. The cover slips were placed in AttoFluor® cell chambers (ThermoFisher Scientific). Following, 25 μl of egg phosphatidylcholine (#840051P—Avanti Polar Lipids) in chloroform (25 mg/ml) doped with 4% v/v rhodamine C (1 mg/ml, Sigma) were deposited onto the gelled agarose surface, and the solvent evaporated with nitrogen gas. The lipid-hydrogel film was rehydrated with 200 mM sucrose in PBS, pH 7.2 for one hour and then transferred into 200 mM glucose in PBS, pH 7.2 for sedimentation. GUVs were allowed to settle overnight before seeded on the coverslips for visualization after treatment with 21 μM BAMLET for one hour."}, "DLD1 cells": {"test_system": "DLD1 cells", "test": "Cell death assays (Prestoblue and ATPlite)", "format": "cell-based, human", "conditions": "7, 21 and 35 μM; Prestoblue and ATPlite", "method": "Two assays were used as an indirect measure of cell death. Luminescence-based ATPlite™ kit (Perkin Elmer) as well as the Prestoblue assay (ThermoFisher Scientific). Cells (5×10^4 cells/well) were seeded in serum-free RPMI-1640 on 96-well plates and treated with BAMLET and alpha1-oleate at different concentration (7, 21, and 35 μM) and incubated for one hour. Afterward, FCS was added at concentration of 5% and the cells were continuously incubated for two hours at 37° C., at the end of which the two kits were used according to manufactures' instructions. Luminescence and fluorescence were measured using a microplate reader (Infinite F200, Tecan). The experiments were performed in triplicate and repeated twice."}, "[5]": {"test_system": "intestine of healthy C57BL/6 mice", "test": "Real-time in vivo fluorescence imaging of BAMLET in healthy mice", "conditions": "oral gavage"}, "[6]": {"conditions": "long-term BAMLET in drinking water"}},
  "data": [
    {"substance": "BAMLET", "values": [
      {"measurement": "polyp number and polyp size", "setting": "[1]; 20 mg/day in drinking water, after eight weeks", "result": "markedly reduced"},
      {"measurement": "loss of body weight", "setting": "[1]; [6]", "result": "prevented"},
      {"measurement": "survival (Kaplan-Meier analysis)", "setting": "[1]; [6]", "result": "increase in survival"},
      {"measurement": "total polyp number and polyp size", "setting": "[1]; [6]", "result": "reduced"},
      {"measurement": "intestinal gene expression compared to healthy C57BL/6 mice", "setting": "[2]; BAMLET treated Apc^Min/+ mice in contrast to sham, including cancer related biofunctions", "result": "significantly less affected"},
      {"measurement": "number of genes regulated at all time points (shared genes)", "setting": "[2]; BAMLET treated vs sham, cut-off fold change ≥2.0", "result": 2339},
      {"measurement": "cancer-related biofunctions", "setting": "[2]; BAMLET treated vs sham, gavage or drinking water, shared genes", "result": "inhibited"},
      {"measurement": "Wnt/β-catenin signaling (network analysis of shared genes)", "setting": "[2]; genes regulated at all time points (2w pt, 5w pt, 8w dw), vs sham", "result": "inhibited"},
      {"measurement": "Wnt/β-catenin signaling pathway, intestinal gene expression", "setting": "[2]; long-term follow up, BAMLET in drinking water", "result": "inhibited"},
      {"measurement": "PD-1 pathway activation (gene expression)", "setting": "[2]; long-term, BAMLET treated Apc^Min/+ mice compared to healthy C57BL/6 mice", "result": "reduced PD-1 pathway activation"},
      {"measurement": "PD-1 pathway (gene expression)", "setting": "[2]; long-term, direct comparison BAMLET treated vs sham", "result": "most strongly down-regulated"},
      {"measurement": "CD44 and its ligand SPP1 (osteopontin) expression", "setting": "[2]; tumor microenvironment pathway, BAMLET vs sham", "result": "most strongly inhibited genes in the tumor microenvironment pathway"},
      {"measurement": "principal component analysis of mRNA profiles", "setting": "[2]; whole intestinal tissue", "result": "formed a cluster near the healthy mice and distant from the sham group"},
      {"measurement": "PD-1 staining", "setting": "PD-1", "result": "significantly lower"},
      {"measurement": "number of lung areas with proliferating cells", "setting": "[3]; TTF-1 / β-catenin stained lung sections, vs sham", "result": "markedly reduced"},
      {"measurement": "BAMLET staining in lungs, livers or kidneys", "setting": "[3]; immunohistochemistry, in contrast to the intestine", "result": "not detected"},
      {"measurement": "β-catenin staining in lungs, livers and kidneys", "setting": "[3]; long-term BAMLET in drinking water, vs sham", "result": "general reduction"},
      {"measurement": "macroscopic changes in intestine, peritoneal cavity and major organs", "setting": "[3]; long-term follow up, vs sham", "result": "much less apparent"},
      {"measurement": "level of TTF-1 staining in areas with proliferating cells", "setting": "[3]; lung sections, vs sham", "result": "markedly reduced"},
      {"measurement": "membrane response", "setting": "[4]", "result": "triggered rapid blebbing, tubulation and eventual vesicle division"},
      {"measurement": "cell viability", "setting": "DLD1 cells", "result": "rapid dose-dependent reduction"},
      {"measurement": "BAMLET retention in the intestines of healthy mice", "setting": "[5]", "result": "lack of BAMLET retention"}
    ]}
  ]
}
